According to patent US10822317B2, “Methods and compositions for wound healing” (QBiotics Limited, priority 2013, dated 2020):

What was measured:
HaCaT cells = experiment: HaCaT scratch repopulation with Mitomycin C (migration study); format: cell-based, human; conditions: with 1 μg/mL Mitomycin C; 0.001 to 1.0 μg/mL; p<0.05
[1] = test system: wounds following necrosis and sloughing of spontaneous tumours; experiment: Resolution of wounds after sloughing of spontaneous tumours treated by intratumoural injection, equine; format: in vivo; conditions: for Average days from tumour slough to wound closure: Equine
Description: Veterinary clinical data on speed of resolution of wounds that formed following necrosis and sloughing of spontaneous tumours that had been treated by intratumoural injection of Compound 1 (30% 1,2 propanediol formulation at either 0.5 or 1.0 mg/mL concentration) in twenty-four companion animals are summarised in Table 17.
Note that all wounds were managed as open wounds and no bandaging, dressings, lotions or concomitant medications were used in any of these cases.

[2] = test system: immortalised human keratinocyte cells (HaCaT); experiment: Scratch repopulation and closure with HaCaT; format: cell-based; conditions: 48 hrs; 0.001, 0.01 and 0.1 μg/ml; p<0.01

CC=C(C)C(=O)OC1C(C)C2(O)C(C3OC3(CO)C(O)C3(O)C(=O)C(C)=CC32)C2C(C)(C)C12OC(=O)C(C)CC (stereo not shown) [Compound 1, 12-tigloyl-13-(2-methylbutanoyl)-6,7-epoxy-4,5,9,12,13,20-hexahydroxy-1-tigliaen-3-one]
scratch repopulation and closure (migration study) (HaCaT cells): enhanced
No. of horses: Tissue deficit at wound site, Minor ([1]; 5 to 10% tissue deficit across the original wound area): 0
No. of horses: Tissue deficit at wound site, Nil or minimal ([1]; <5% tissue deficit across the original wound area): 6
No. of horses: Tissue deficit at wound site, Substantial ([1]; >10% tissue deficit across the original wound area): 0
Average days from tumour slough to wound closure ([1]; wound size class 0.25 to 9 cm^2, 4 cases): 20 ± 12 days
Average days from tumour slough to wound closure ([1]; wound size class 9 to 50 cm^2, 2 cases): 53 ± 22 days
No. of horses: Hair regrowth on wound area, Sparse ([1]; Hair covers <50% of original wound area): 0
No. of horses: Hair regrowth on wound area, Partial ([1]; Hair covers >50% of original wound area): 1
No. of horses: Hair regrowth on wound area, Full ([1]; Hair covers >95% of original wound area): 5
No. of horses: Scarring & skin thickening, Minor ([1]; Localised scar covering <10% of original wound area): 1
No. of horses: Scarring & skin thickening, Substantial ([1]; Scarring covering >10% of original wound area): 1
No. of horses: Scarring & skin thickening, Nil or minimal ([1]; Scarring not obvious visually or by touch): 4
No. of horses: Change in hair colour, No ([1]; healed wound site): 3
No. of horses: Change in hair colour, Yes ([1]; healed wound site): 3
No. of horses: Skin pigmentation, Hyperpigmentation ([1]; healed wound site): 1
No. of horses: Skin pigmentation, Hypopigmentation ([1]; healed wound site): 1
No. of horses: Skin pigmentation, Normal ([1]; healed wound site): 3
No. of horses: Skin pigmentation, Patchy ([1]; healed wound site): 1
rate of scratch closure compared to the control treatment [2]: significantly increased
